Laboratory results as given in paper PMC11435058, “Synthesis of New Thiazole-Privileged Chalcones as Tubulin Polymerization Inhibitors with Potential Anticancer Activities” (Pharmaceuticals, 2024).

Experiments:
[1] = system: SNB-75; assay: NCI-60 anticancer screen (SRB; single dose and five doses)
[2] = system: SK-MEL-28; assay: as above; details: Homo sapiens; for activity at 10 µM: SK-MEL-28, 48 h, read-out: Growth Percentage
[3] = system: HOP-92; assay: as above; details: Homo sapiens; for activity at 10 µM: HOP-92, 48 h, read-out: Growth Percentage
[4] = system: MDA-MB-435; assay: as above; details: Homo sapiens; for activity at 10 µM: MDA-MB-435, 48 h, read-out: Growth Percentage
[5] = system: U251; assay: as above; details: Homo sapiens; for activity at 10 µM: U-251, 48 h, read-out: Growth Percentage
[6] = system: KM12; assay: as above; details: Homo sapiens; for activity at 10 µM: KM12, 48 h, read-out: Growth Percentage
[7] = system: NCI-H460; assay: as above; details: Homo sapiens; for activity at 10 µM: NCI-H460, 48 h, read-out: Growth Percentage
[8] = system: OVCAR-5; assay: as above; details: Homo sapiens; for activity at 10 µM: OVCAR-5, 48 h, read-out: Growth Percentage
[9] = system: TK-10; assay: as above; details: Homo sapiens; for activity at 10 µM: TK-10, 48 h, read-out: Growth Percentage
[10] = system: SF-295; assay: as above; details: Homo sapiens; for activity at 10 µM: SF-295, 48 h, read-out: Growth Percentage
[11] = system: MDA-MB-468; assay: as above; type: cell-based, human; details: for activity at 10 µM: 48 h, MDA-MB-468, dose of 10 μM, read-out: Growth Percentage
Outline: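 NCI panel of about 60 human tumor cell lines treated with compound at a single concentration (10μM) for 48 h. Growth measured by SRB protein staining and expressed as percent growth of treated versus untreated control cells.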

[12] = system: OVCAR-4; assay: as above; details: Homo sapiens; for activity at 10 µM: OVCAR-4, 48 h, read-out: Growth Percentage
[13] = system: A549/ATCC; assay: as above; details: Homo sapiens; for activity at 10 µM: A549, 48 h, read-out: Growth Percentage
[14] = system: HOP-62; assay: as above; details: Homo sapiens; for activity at 10 µM: HOP-62, 48 h, read-out: Growth Percentage
[15] = system: CAKI-1; assay: as above; details: Homo sapiens; for activity at 10 µM: CAKI-1, 48 h, read-out: Growth Percentage
[16] = system: T-47D; assay: as above; details: Homo sapiens, T47D; for activity at 10 µM: 48 h, read-out: Growth Percentage
[17] = system: HT29; assay: as above; details: Homo sapiens; for activity at 10 µM: HT-29, 48 h, read-out: Growth Percentage
[18] = system: SW-620; assay: as above; details: Homo sapiens; for activity at 10 µM: SW-620, 48 h, read-out: Growth Percentage
[19] = system: SK-MEL-2; assay: as above; details: Homo sapiens; for activity at 10 µM: SK-MEL-2, 48 h, read-out: Growth Percentage
[20] = system: IGROV1; assay: as above; details: Homo sapiens
[21] = system: 786-0; assay: as above; details: Homo sapiens; for activity at 10 µM: 786-0, 48 h, read-out: Growth Percentage
[22] = system: SK-OV-3; assay: as above; details: Homo sapiens; for activity at 10 µM: SK-OV-3, 48 h, read-out: Growth Percentage
[23] = system: OVCAR-3; assay: cells; details: Homo sapiens; for activity at 10 µM: OVCAR-3, 48 h, read-out: Growth Percentage
[24] = system: HL-60(TB); assay: NCI-60 anticancer screen (SRB; single dose and five doses); details: Homo sapiens; for activity at 10 µM: HL-60, 48 h, read-out: Growth Percentage
[25] = system: UACC-62; assay: as above; details: Homo sapiens; for activity at 10 µM: UACC-62, 48 h, read-out: Growth Percentage

COc1cc(/C=C/C(=O)c2sc(=S)[nH]c2C)cc(OC)c1OC [2p, (E)-1-(4-Methyl-2-Thioxo-2,3-Dihydrothiazol-5-yl)-3-(3,4,5-Trimethoxyphenyl)Prop-2-En-1-One]
GI50 ([1]; Homo sapiens, SNB-75): 2190 nM | IC50 ([1]; Homo sapiens, SNB-75): 7.59 µM | CC50 ([1]; Homo sapiens, SNB-75, read-out: LC50): 28.8 µM | TGI ([1]; five-dose, CNS Cancer SNB-75): 6.17 µM | GI50 ([2]; SK-MEL-28): 4.07 µM | IC50 ([2]; SK-MEL-28): 9.12 µM | activity at 10 µM [2]: 24.2% | CC50 ([2]; SK-MEL-28, read-out: LC50): 57.5 µM | IC (TGI) ([2]; SK-MEL-28, read-out: TGI): 17.4 µM | GI50 ([3]; HOP-92): 2950 nM | IC50 ([3]; HOP-92): 44.7 µM | activity at 10 µM [3]: 16.4% | CC50 ([3]; HOP-92, read-out: LC50): > 100 µM | IC (TGI) ([3]; HOP-92, read-out: TGI): 19.9 µM | GI50 ([4]; MDA-MB-435): 2570 nM | IC50 ([4]; MDA-MB-435): 4.47 µM | activity at 10 µM [4]: 11% | CC50 ([4]; MDA-MB-435, read-out: LC50): > 100 µM | IC (TGI) ([4]; MDA-MB-435, read-out: TGI): 10.5 µM | GI50 ([5]; U-251): 3.02 µM | IC50 ([5]; U-251): 4.17 µM | activity at 10 µM [5]: 15% | CC50 ([5]; U-251, read-out: LC50): 43.6 µM | IC (TGI) ([5]; U-251, read-out: TGI): 12 µM | GI50 ([6]; KM12): 3.24 µM | IC50 ([6]; KM12): 6.46 µM | activity at 10 µM [6]: 9.52% | CC50 ([6]; KM12, read-out: LC50): 42.7 µM | IC (TGI) ([6]; KM12, read-out: TGI): 13.8 µM | GI50 ([7]; NCI-H460): 2140 nM | IC50 ([7]; NCI-H460): 3.31 µM | activity at 10 µM [7]: -1.34% | CC50 ([7]; NCI-H460, read-out: LC50): 44.7 µM | IC (TGI) ([7]; NCI-H460, read-out: TGI): 5.62 µM | GI50 ([8]; OVCAR-5): 3.8 µM | IC50 ([8]; OVCAR-5): 12.3 µM | activity at 10 µM [8]: 6.56% | CC50 ([8]; OVCAR-5, read-out: LC50): 43.6 µM | IC (TGI) ([8]; OVCAR-5, read-out: TGI): 15.1 µM | GI50 ([9]; TK-10): 5.01 µM | IC50 ([9]; TK-10): 16.2 µM | activity at 10 µM [9]: 53% | CC50 ([9]; TK-10, read-out: LC50): 47.9 µM | IC (TGI) ([9]; TK-10, read-out: TGI): 17.8 µM | GI50 ([10]; SF-295): 5.5 µM | IC50 ([10]; SF-295): 14.5 µM | activity at 10 µM [10]: 42.3% | CC50 ([10]; SF-295, read-out: LC50): 66.1 µM | IC (TGI) ([10]; SF-295, read-out: TGI): 21.4 µM | activity at 10 µM ([11]; Homo sapiens): 3.79% | IC50 ([11]; Homo sapiens, MDA-MB-468, MDA-MB-468, Breast Cancer, five dose): 5.75 µM | GI50 ([11]; Homo sapiens, MDA-MB-468, Breast Cancer, five dose): 1550 nM | CC50 ([11]; Homo sapiens, MDA-MB-468, Breast Cancer, five dose, read-out: LC50 (the source's name)): 17.8 µM | TGI ([11]; MDA-MB-468, Breast Cancer, five dose): 4.47 µM | GI50 ([12]; OVCAR-4): 2820 nM | IC50 ([12]; OVCAR-4): 6.61 µM | activity at 10 µM [12]: 15.6% | CC50 ([12]; OVCAR-4, read-out: LC50): 51.3 µM | IC (TGI) ([12]; OVCAR-4, read-out: TGI): 12.6 µM | GI50 ([13]; A549): 3.55 µM | IC50 ([13]; A549): 5.01 µM | activity at 10 µM [13]: 26.6% | CC50 ([13]; A549, read-out: LC50): 44.7 µM | IC (TGI) ([13]; A549, read-out: TGI): 13.8 µM | GI50 ([14]; HOP-62): 3.16 µM | IC50 ([14]; HOP-62): 5.37 µM | activity at 10 µM [14]: 4.61% | CC50 ([14]; HOP-62, read-out: LC50): > 100 µM | IC (TGI) ([14]; HOP-62, read-out: TGI): 16.2 µM | GI50 ([15]; CAKI-1): 2570 nM | IC50 ([15]; CAKI-1): 4.68 µM | activity at 10 µM [15]: 28.2% | CC50 ([15]; CAKI-1, read-out: LC50): 45.7 µM | IC (TGI) ([15]; CAKI-1, read-out: TGI): 13.2 µM | GI50 [16]: 2190 nM | IC50 [16]: 7.24 µM | activity at 10 µM [16]: -1.59% | CC50 ([16]; read-out: LC50): > 100 µM | IC (TGI) ([16]; read-out: TGI): 13.2 µM | GI50 ([17]; HT-29): 3.47 µM | IC50 ([17]; HT-29): 4.57 µM | activity at 10 µM [17]: 40.1% | CC50 ([17]; HT-29, read-out: LC50): > 100 µM | IC (TGI) ([17]; HT-29, read-out: TGI): 13.5 µM | GI50 ([18]; SW-620): 2570 nM | IC50 ([18]; SW-620): 3.72 µM | activity at 10 µM [18]: 6.92% | CC50 ([18]; SW-620, read-out: LC50): 46.8 µM | IC (TGI) ([18]; SW-620, read-out: TGI): 9.77 µM | GI50 ([19]; SK-MEL-2): 3.09 µM | IC50 ([19]; SK-MEL-2): 11 µM | activity at 10 µM [19]: 34.9% | CC50 ([19]; SK-MEL-2, read-out: LC50): 42.7 µM | IC (TGI) ([19]; SK-MEL-2, read-out: TGI): 11.5 µM | GI50 ([20]; IGROV-1): 3.31 µM | IC50 ([20]; IGROV-1): 5.75 µM | CC50 ([20]; IGROV-1, read-out: LC50): > 100 µM | IC (TGI) ([20]; IGROV-1, read-out: TGI): 13.8 µM | GI50 ([21]; 786-0): 4.57 µM | IC50 ([21]; 786-0): 6.61 µM | activity at 10 µM [21]: 21.1% | CC50 ([21]; 786-0, read-out: LC50): 97.7 µM | IC (TGI) ([21]; 786-0, read-out: TGI): 20.9 µM | GI50 ([22]; SK-OV-3): 7.41 µM | IC50 ([22]; SK-OV-3): 46.8 µM | activity at 10 µM [22]: 31.2% | CC50 ([22]; SK-OV-3, read-out: LC50): > 100 µM | IC (TGI) ([22]; SK-OV-3, read-out: TGI): > 100 µM | GI50 ([23]; OVCAR-3): 2450 nM | activity at 10 µM [23]: -25.2% | IC50 ([23]; OVCAR-3, five-dose, Ovarian Cancer OVCAR-3): 5.25 µM | CC50 ([23]; OVCAR-3, read-out: LC50): 25.7 µM | IC (TGI) ([23]; OVCAR-3, read-out: TGI): 6.92 µM | GI50 ([24]; HL-60): 2570 nM | IC50 ([24]; HL-60): 3.89 µM | activity at 10 µM [24]: 3.95% | CC50 ([24]; HL-60, read-out: LC50): > 100 µM | IC (TGI) ([24]; HL-60, read-out: TGI): 11.2 µM | GI50 ([25]; UACC-62): 2820 nM | IC50 ([25]; UACC-62): 5.37 µM | activity at 10 µM [25]: -3.11% | IC (TGI) ([25]; UACC-62, read-out: TGI): 12.3 µM

COc1ccc(/C=C/C(=O)c2sc(=S)[nH]c2C)cc1OC [2o, (E)-3-(3,4-Dimethoxyphenyl)-1-(4-Methyl-2-Thioxo-2,3-Dihydrothiazol-5-yl)Prop-2-En-1-One]
activity at 10 µM ([1]; Homo sapiens, SNB-75, 48 h, read-out: Growth Percentage): 58.1% | activity at 10 µM [2]: 83.2% | activity at 10 µM [3]: 83.7% | activity at 10 µM [4]: 38.9% | activity at 10 µM [5]: 33.7% | activity at 10 µM [6]: 42.2% | activity at 10 µM [7]: 40% | activity at 10 µM [8]: 131% | activity at 10 µM [9]: 75.4% | activity at 10 µM [10]: 66.5% | activity at 10 µM ([11]; Homo sapiens): -0.42% | activity at 10 µM [12]: 47.6% | activity at 10 µM [13]: 64.6% | activity at 10 µM [14]: 34.1% | activity at 10 µM [15]: 42% | activity at 10 µM [16]: 44.1% | activity at 10 µM [17]: 97.7% | activity at 10 µM [18]: 34.9% | activity at 10 µM [19]: 68.6% | activity at 10 µM ([20]; IGROV-1, 48 h, read-out: Growth Percentage): 69.5% | activity at 10 µM [21]: 60% | activity at 10 µM [22]: 76.9% | activity at 10 µM [23]: 3.22% | activity at 10 µM [24]: 35.6% | activity at 10 µM [25]: 63.9%
